The values that follow come from patent US12534742B2, “Compound for regulating gene editing efficiency and application thereof” (Shanghai Institute of Organic Chemistry, Chinese Academy of …, priority 2018, dated 2026).

Structures are written as SMILES. Several values for one entry are separate records, joined by “and”; a condition that tells them apart may be missing. Identical values can stand only once.

For data set [1], the target named is CRISPR/Cas9 from Streptococcus pyogenes (SpyCas9) (Streptococcus pyogenes serotype M1, UniProt Q99ZW2). Put plainly: cell-based.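 Note: Cell-based reporter with a SpyCas9 target site placed in EGFP, where NHEJ repair of the cut restores the reading frame, read-out is the share of EGFP-positive cells, lowered by inhibitors.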
Description: The CRISPR/Cas9 recognition site was inserted into the EGFP coding sequence so that the downstream sequence of the CRISPR/Cas9 recognition site was inside the box. The EGFP sequence was cleaved by Cas9 to produce double-strand breaks (DSBs), which would repair one of the two DNA repair mechanisms in the cell: non-homologous end joining (NHEJ) or homologous directed repair (HDR). The insertion or deletion introduced by NHEJ would restore the open reading frame of EGFP, thus activating EGFP fluorescence (FIG. 1).
The target in data set [2] is T1, SpyCas9 (Streptococcus pyogenes serotype M1, UniProt Q99ZW2).
T1 construct: expressed in transfected cells; host or cells: HEK293
Description: Inhibition of plasmid-expressed SpyCas9 editing of endogenous genes in HEK293 cells, T7E1 test. Type of data set: cell-based. Particulars: 10 μM compound. As for the experimental part: (§1) HEK293 cells (10^5 cells/well) were seeded on a 24-well plate. 24 hours after inoculation, cells were transfected with 200 ng AAVS1-AS2 and 200 ng pST-Cas9 plasmid or 200 ng EMX1 and 200 ng pST-Cas9 plasmid in Opti-MEM medium. 6 hours after transfection, DMEM supplemented with 10% FBS and 10 μM drug (Compound 49) was used to replace Opti-MEM. The positive control for Cas9 activity was 200 ng AAVS1-AS2 and 200 ng pST-Cas9 plasmid or 200 ng EMX1 and 200 ng pST-Cas9 plasmid without drug. After the gene editing was completed, the cell genomic DNA was extracted, and the gene editing efficiency was tested by the T7E1 method (see Guschin, D. Y. et al. Methods Mol. Biol. 649, 247-256 (2010))).
The method of this example was the same as in Example 2.

The target in data set [3] is T1, SpyCas9. Description: Specificity of SpyCas9-based gene editing (targeted/off-target editing), T7E1 test. Type of data set: cell-based. Particulars: HEK293 cells. As for the experimental part:
as §1
SpyCas9 was lipid transfected into HEK293 cells or nuclear transfected into K562 cells to determine the effect of compound 49 on the specificity of SpyCas9 in multiple cell lines on different genes. The inhibitor was added to the culture 6 hours after transfection. The detection method is the same as in Example 2.

In data set [4] the target is T2, Staphylococcus aureus Cas9 (SaCas9) (Staphylococcus aureus, UniProt J7RUA5).
T2 construct: expressed in transfected cells; host or cells: HEK293 (method similar to 2.1)
Put plainly: Inhibition of plasmid-expressed SaCas9 gene editing in cell culture, T7E1 test. Particulars: plasmid containing SaCas9; group without drug 14%. Type of data set: cell-based. As for the experimental part: as §1
The method of this example was similar to 2.1, except that pST-Cas9 was replaced with a plasmid containing SaCas9. The detection method was the same as in Example 2.

Data set [5] deals with base editing system. Description: Regulation of base editing in HEK293T cells, deep sequencing. Type of data set: cell-based.
For data set [6] the following is noted: humans; cited from earlier work.
Where [7] appears, read: HEK293 cells transfected with AAVS1-AS2 and pST-Cas9 plasmids, no-drug group 22.4% and 35.1%.
The mark [8] stands for this setting: HEK293 cells transfected with EMX1 and pST-Cas9 plasmids, no-drug group 26.5% and 27.9%.

T1 sequence (Q99ZW2 whole entry): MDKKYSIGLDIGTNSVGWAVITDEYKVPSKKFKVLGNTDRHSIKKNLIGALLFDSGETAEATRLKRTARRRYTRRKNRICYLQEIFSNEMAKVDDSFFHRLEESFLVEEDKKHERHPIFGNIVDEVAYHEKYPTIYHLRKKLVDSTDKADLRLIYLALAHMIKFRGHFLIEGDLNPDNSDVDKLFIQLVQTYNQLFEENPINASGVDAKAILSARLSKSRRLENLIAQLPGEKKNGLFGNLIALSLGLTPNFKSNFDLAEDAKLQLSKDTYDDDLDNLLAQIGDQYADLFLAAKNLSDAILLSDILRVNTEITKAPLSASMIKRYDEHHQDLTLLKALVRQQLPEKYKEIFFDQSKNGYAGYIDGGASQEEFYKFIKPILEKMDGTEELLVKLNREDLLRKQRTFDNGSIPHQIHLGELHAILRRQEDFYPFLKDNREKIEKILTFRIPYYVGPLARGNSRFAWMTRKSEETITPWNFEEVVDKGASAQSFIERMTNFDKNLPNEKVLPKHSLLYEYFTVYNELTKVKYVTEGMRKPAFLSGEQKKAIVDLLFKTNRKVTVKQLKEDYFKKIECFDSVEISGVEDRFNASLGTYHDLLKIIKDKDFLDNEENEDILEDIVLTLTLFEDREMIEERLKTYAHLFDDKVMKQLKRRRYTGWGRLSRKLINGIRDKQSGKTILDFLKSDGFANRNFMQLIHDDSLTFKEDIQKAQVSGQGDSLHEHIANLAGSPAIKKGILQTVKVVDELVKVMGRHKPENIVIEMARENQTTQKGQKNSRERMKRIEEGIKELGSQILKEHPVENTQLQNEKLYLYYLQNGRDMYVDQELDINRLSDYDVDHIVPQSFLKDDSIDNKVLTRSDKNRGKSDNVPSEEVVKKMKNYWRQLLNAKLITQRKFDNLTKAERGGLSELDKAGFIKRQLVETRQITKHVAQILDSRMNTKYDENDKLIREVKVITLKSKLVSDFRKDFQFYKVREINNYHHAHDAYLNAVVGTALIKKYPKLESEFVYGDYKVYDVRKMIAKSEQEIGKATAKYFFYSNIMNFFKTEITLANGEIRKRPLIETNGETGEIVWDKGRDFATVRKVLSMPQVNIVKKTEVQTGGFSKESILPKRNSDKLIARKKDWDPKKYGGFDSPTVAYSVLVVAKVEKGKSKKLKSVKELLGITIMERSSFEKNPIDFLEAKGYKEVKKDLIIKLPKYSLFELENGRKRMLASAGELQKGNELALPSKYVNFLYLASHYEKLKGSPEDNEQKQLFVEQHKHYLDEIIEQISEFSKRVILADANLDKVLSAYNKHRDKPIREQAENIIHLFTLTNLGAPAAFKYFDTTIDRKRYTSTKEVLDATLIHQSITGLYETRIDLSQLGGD
CRISPR/Cas9 from Streptococcus pyogenes (SpyCas9), sequence (Q99ZW2 whole entry): as above
T2 sequence (J7RUA5 whole entry): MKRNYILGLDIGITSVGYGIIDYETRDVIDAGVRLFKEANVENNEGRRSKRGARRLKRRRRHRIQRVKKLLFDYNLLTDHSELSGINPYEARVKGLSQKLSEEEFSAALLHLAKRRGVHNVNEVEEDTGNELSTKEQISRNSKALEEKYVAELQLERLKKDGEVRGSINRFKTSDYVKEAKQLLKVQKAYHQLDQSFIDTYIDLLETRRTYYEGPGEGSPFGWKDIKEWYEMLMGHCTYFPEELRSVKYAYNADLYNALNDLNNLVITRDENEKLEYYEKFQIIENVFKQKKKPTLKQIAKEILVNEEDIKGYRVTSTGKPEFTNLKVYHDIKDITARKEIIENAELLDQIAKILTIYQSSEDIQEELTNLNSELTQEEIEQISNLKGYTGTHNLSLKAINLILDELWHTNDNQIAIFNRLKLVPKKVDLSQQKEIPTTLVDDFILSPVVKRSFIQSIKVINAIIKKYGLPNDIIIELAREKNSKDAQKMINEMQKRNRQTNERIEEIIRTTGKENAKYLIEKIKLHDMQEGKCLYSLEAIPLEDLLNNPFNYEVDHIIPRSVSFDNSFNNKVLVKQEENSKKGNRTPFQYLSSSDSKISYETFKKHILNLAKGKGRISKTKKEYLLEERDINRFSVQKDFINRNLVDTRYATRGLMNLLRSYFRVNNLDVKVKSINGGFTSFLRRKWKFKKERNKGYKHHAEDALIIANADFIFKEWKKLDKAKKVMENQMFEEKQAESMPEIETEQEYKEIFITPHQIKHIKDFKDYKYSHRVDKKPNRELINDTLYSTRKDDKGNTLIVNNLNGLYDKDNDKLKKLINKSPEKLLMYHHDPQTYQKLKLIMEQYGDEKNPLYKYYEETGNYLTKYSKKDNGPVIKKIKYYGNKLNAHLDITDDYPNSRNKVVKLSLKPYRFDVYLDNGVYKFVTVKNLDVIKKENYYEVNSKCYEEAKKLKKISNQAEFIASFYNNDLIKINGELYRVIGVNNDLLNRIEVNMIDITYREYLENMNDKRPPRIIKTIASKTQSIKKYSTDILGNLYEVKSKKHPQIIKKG

For the compound `CC1=CC(=O)c2c(O)cccc2C1=O` [Compound 48], the IC50 in data set [1] lay in the range of 1 to 10 µM. The gene modification rate in data set [2] (setting [7]) and in data set [2] (setting [8]) was 0% throughout.
On to `O=C(/C=C\n1cnc(-c2cc(C(F)(F)F)cc(C(F)(F)F)c2)n1)NNc1cnccn1` [Compound 49], for which the IC50 in data set [1] is below 1 µM. Besides, the gene modification rate in data set [2] (setting [7]) is below 1%; in data set [2] (setting [8]) it was 5.6% and 3.8%; in data set [4] it was below 0.5%. Moreover, in data set [3] (after compound added, 2.4 when no compound was added), the “ratio of the number of scheduled gene editing at specific sites to the number of scheduled gene editing at non-specific sites” value stood at 7. For the same compound, the “raise of the specific/non-specific site editing ratio” value in data set [3] (with compound versus no compound) is given as 2.9 fold. Also, the “decrease rate of C→T conversion frequency” value in data set [5] (sg47, C on 5th site, 500 nM compound) is reported as 50%. Besides, the C→T conversion frequency in data set [5] (sg47, C on 5th site, 500 nM compound, 18% without compound) came to 9%. For the same compound, the indel frequency entry in data set [5] (sg48, 500 nM compound) is on record as “reduced overall”. The “C→T conversion inhibition efficiency” value in data set [5] (sgMSSK1-5, C on 5th site in the window, 500 nM compound) came to 30%; in data set [5] (sgMSSK1-5, C on 11th site out-of-window, 500 nM compound), 50%. The “safety in clinical testing” value in data set [6] is reported as “safe for humans”.
Turning to `O=C(/C=C/c1ccccc1)Nc1cccnc1` [Compound 862], in data set [1], the IC50 was above 100 µM.
Still for that read-out and setting: next, `CSc1ccc(NC(=O)/C=C/c2ccccc2)cc1` [Compound 860]: above 100 µM; `CCN(CC)C(=O)/C=C/c1ccccc1` [Compound 842]: above 100 µM; `O=C(/C=C/c1cc(F)c(F)c(F)c1)c1ccccc1` [Compound 110]: 10 to 100 µM.
The same measure, in the same setting: under `O=C(O)/C=C/c1cccc(O)c1` [Compound 801] stands above 100 µM.
Same read-out and setting: under `O=C(/C=C/c1ccccc1)NC1CC1` [Compound 854] stands above 100 µM.
In data set [1], `CC(=O)/C=C/c1ccccc1` [Compound 890] yielded an IC50 above 100 µM.
Still for that read-out and setting: under `O=S(F)(=Nc1ccc(Br)cc1)N1CCC(Cc2ccccc2)CC1` (stereo not shown) [Compound 882] stands above 100 µM.
Take `CCN(CC)S(=O)(=O)/C=C/c1ccccc1` [Compound 868]: the IC50 in data set [1] is above 100 µM.
Same read-out and setting: under `COc1ccc(CNC(=O)/C=C/c2ccccc2)cc1` [Compound 846] stands above 100 µM.
Same read-out and setting: next, `CCC1(O)C(=O)OCc2c1cc1n(c2=O)Cc2cc3ccccc3nc2-1` (stereo not shown) [Compound 874]: above 100 µM; `O=C(O)/C=C/c1ccc(O)cc1` [Compound 802]: above 100 µM.
On the same count and under the same terms, next, `O=C(/C=C\n1cnc(-c2cc(C(F)(F)F)cc(C(F)(F)F)c2)n1)NNc1ccccn1` [Compound 901]: 1 to 10 µM.
For `COc1ccc(C(=O)/C=C/c2ccccc2)cc1` [Compound 102], the IC50 in data set [1] fell in the range of 10 to 100 µM.
On the same count and under the same terms, under `COC(=O)/C=C/C(=O)OC` [Compound 826] stands above 100 µM; under `O=C1CC(c2ccccc2O)Oc2ccccc21` (stereo not shown) [Compound 816], above 100 µM.
Still for that read-out and setting: next, `O=C(/C=C/c1cccc(Cl)c1)c1ccccc1` [Compound 104]: 10 to 100 µM; `O=C(/C=C/c1ccc(O)cc1)c1ccccc1` [Compound 12]: 10 to 100 µM.
`O=C1C=CCC1` [Compound 888] had a half-maximal inhibitory concentration (IC50) in data set [1] above 100 µM.
Still for that read-out and setting: next, `COC(=O)/C=C/c1ccc(O)cc1` [Compound 804]: above 100 µM; `CN(C)C(=O)/C=C/c1ccccc1` [Compound 843]: above 100 µM; `COc1cc(/C=C/C(=O)CC(=O)/C=C/c2ccc(O)c(OC)c2)ccc1O` [Compound 75]: 10 to 100 µM.
